Patent publication US8901038B2, “Biphenyl-substituted cyclic ketoenols” (Bayer CropScience AG, priority 2010, dated 2014)

Key:
[1] = tested on: green peach aphid (Myzus persicae); test: Myzus test (MYZUPE spray treatment); assay type: in vivo; settings: application rate 500 g/ha; Chinese cabbage leaf discs sprayed; after 6 days
Description: Myzus Test (MYZUPE Spray Treatment)
• Solvents: 78 parts by weight of acetone • 1.5 parts by weight of dimethylformamide • Emulsifier: 0.5 part by weight of alkylaryl polyglycol ether
To produce a suitable preparation of active compound, 1 part by weight of active compound is mixed with the stated amounts of solvent and emulsifier, and the concentrate is diluted with emulsifier-containing water to the desired concentration. Discs of Chinese cabbage (Brassica pekinensis) which are infested by all stages of the green peach aphid (Myzus persicae) are sprayed with an active compound preparation of the desired concentration. After 6 days, the effect in % is determined. 100% means that all aphids have been killed; 0% means that none of the aphids have been killed.

[2] = tested on: larvae of the mustard beetle (Phaedon cochleariae); test: Phaedon test (PHAECO spray treatment); assay type: in vivo; settings: application rate 500 g/ha; Chinese cabbage leaf discs sprayed; after 7 days
Description: Phaedon Test (PHAECO Spray Treatment)
(§1) • Solvents: 78.0 parts by weight of acetone • 1.5 parts by weight of dimethylformamide • Emulsifier: 0.5 part by weight of alkylaryl polyglycol ether
To produce a suitable preparation of active compound, one part by weight of active compound is mixed with the stated amounts of solvents and emulsifier, and the concentrate is diluted with emulsifier-containing water to the desired concentration. […].
After 7 days, the effect in % is determined. 100% means that all beetle larvae have been killed; 0% means that none of the beetle larvae have been killed.

[3] = tested on: greenhouse red spider mite (Tetranychus urticae); test: Tetranychus test; OP-resistant (TETRUR spray treatment); assay type: in vivo; settings: application rate 100 g/ha; bean leaf discs sprayed; after 6 days
Description: Tetranychus Test; OP-Resistant (TETRUR Spray Treatment)
as §1
To produce a suitable preparation of active compound, 1 part by weight of active compound is mixed with the stated amounts of solvent and emulsifier, and the concentrate is diluted with emulsifier-containing water to the desired concentration. Discs of bean leaves (Phaseolus vulgaris), which are infested by all stages of the greenhouse red spider mite (Tetranychus urticae) are sprayed with an active compound preparation of the desired concentration.
After 6 days, the effect in % is determined. 100% means that all spider mites have been killed; 0% means that none of the spider mites have been killed.

[4] = From the text: Use is made of leaves which, fully developed, are cut from apple trees of the cultivar Golden Delicious.
Only the cuticles, free from hairs and stoma, of the upper sides of the leaves are then used. They are washed repeatedly alternating with water and a buffer solution of pH 7. The clean cuticles obtained are then mounted on Teflon plates and smoothed and dried with a gentle stream of air.
In the next step, the cuticle membranes obtained in this manner are placed into stainless steel diffusion cells (=transport chambers) for membrane transport studies. To this end, the cuticles are placed with a pincette into the centre of the edges, coated with silicone fat, of the diffusion cells and closed with a ring, which is also treated with fat. The arrangement is chosen such that the morphological outside of the cuticles is facing outwards, i.e. exposed to air, whereas the original inside is facing the interior of the diffusion cell.
The diffusion cells are filled with a 30% strength ethylene glycol/water solution. To determine the penetration, in each case 10 μl of the spray liquor of the composition below are applied to the outside of the cuticles. The spray liquor is prepared using local tap water of medium hardness.
After the application of the spray liquors, the water is allowed to evaporate and the chambers are inverted and placed into thermostatic tubs in which temperature and atmospheric humidity over the cuticles can be adjusted using a gentle stream of air onto the cuticles with the spray coating (35° C., 60% rh).

[5] = tested on: Lucilia cuprina larvae; test: Lucilia cuprina test (LUCICU); assay type: in vivo; settings: application rate 100 ppm; treated horse meat; after 2 days
Description: Lucilia cuprina test (LUCICU)
(§2) • Solvent: Dimethyl sulphoxide
To produce a suitable preparation of active compound, 10 mg of active compound are mixed with 0.5 ml of dimethyl sulphoxide and the concentrate is diluted with water to the desired concentration. Containers containing horse meat treated with the active compound preparation of the desired concentration are populated with about 20 Lucilia cuprina larvae.
After 2 days, the kill in % is determined. 100% means that all larvae have been killed; 0% means that none of the larvae have been killed.

[6] = tested on: caterpillars of the armyworm (Spodoptera frugiperda); test: Spodoptera frugiperda test (SPODFR spray treatment); assay type: in vivo; settings: application rate 500 g/ha; maize leaf discs sprayed; after 7 days
Description: Spodoptera frugiperda Test (SPODFR Spray Treatment)
as §1
To produce a suitable preparation of active compound, 1 part by weight of active compound is mixed with the stated amounts of solvent and emulsifier, and the concentrate is diluted with emulsified water to the desired concentration. Discs of maize leaves (Zea mays) are sprayed with an active compound preparation of the desired concentration and, after drying, populated with caterpillars of the armyworm (Spodoptera frugiperda).
After 7 days, the effect in % is determined. 100% means that all caterpillars have been killed; 0% means that none of the caterpillars have been killed.

[7] = tested on: Boophilus microplus; test: Boophilus microplus test (BOOPMI injection); assay type: in vivo; settings: application rate 20 μg/animal; injection into the abdomen; after 7 days
Description: Boophilus microplus Test (BOOPMI Injection)
as §2
To produce a suitable preparation of active compound, 10 mg of active compound are mixed with 0.5 ml of solvent and the concentrate is diluted with solvent to the desired concentration. The solution of active compound is injected into the abdomen (Boophilus microplus) and the animals are transferred into dishes and stored in a climatized room. The efficacy is monitored for deposition of fertile eggs.
After 7 days, the effect in % is determined. 100% means that none of the ticks has laid any fertile eggs.

[8] = tested on: Meloidogyne incognita; test: Meloidogyne incognita test (MELGIN); assay type: in vivo; settings: application rate 20 ppm; lettuce roots; after 14 days
Description: Meloidogyne incognita Test (MELGIN)
as §1
To produce a suitable preparation of active compound, 1 part by weight of active compound is mixed with the stated amounts of solvents and emulsifier, and the concentrate is diluted with water to the desired concentration. Containers are filled with sand, solution of active compound, Meloidogyne incognita egg/larvae suspension and lettuce seeds. The lettuce seeds germinate and the plants develop. On the roots, galls are formed. After 14 days, the nematicidal activity is determined in % by the formation of galls. 100% means that no galls are found; 0% means that the number of galls on the treated plants corresponds to that of the untreated controls.

Row | Compound | efficacy (aphids killed) [1] | efficacy (beetle larvae killed) [2] | efficacy (spider mites killed) [3] | Penetration after 48 h/% EC + AS (0.7 g/l) [4] | Penetration after 48 h/% EC + RME (1 g/l) [4] | Penetration after 48 h/% EC + RME (1 g/l) + AS (0.7 g/l) [4] | efficacy (kill of larvae) [5] | efficacy (caterpillars killed) [6] | efficacy (deposition of fertile eggs) [7] | efficacy (nematicidal activity by formation of galls) [8]
1 | CCON1CCC2(CC1)NC(=O)C(c1c(CC)ccc(-c3ccc(Cl)cc3)c1CC)=C2O [Example I-1-a-25] | 100% | 100% | 100% | 2% | 4% | 10% |  |  |  | 
2 | Cc1ccc(-c2ccc(F)cc2)c(Cl)c1C1=C(O)C2(CCOCC2)NC1=O [Example I-1-a-12] | 100% | 100% | 100% |  |  |  | 100% | 100% | 95% | 
3 | COC1CCC2(CC1)NC(=O)C(c1c(Cl)ccc(-c3ccc(F)cc3)c1C)=C2O (stereo not drawn) [Example I-1-a-14] | 100% | 100% | 90% |  |  |  | 100% | 100% | 95% | 
4 | Cc1ccc(-c2ccc(Cl)cc2)c(Cl)c1C1=C(O)C2(CCOCC2)NC1=O [Example I-1-a-11] | 100% |  | 100% |  |  |  | 100% | 83% | 90% | > 80%
